ChEMBL document CHEMBL4346739, “Design, synthesis, and evaluation of novel N-(4-phenoxybenzyl)aniline derivatives targeting acetylcholinesterase, β-amyloid aggregation and oxidative stress to treat Alzheimer's disease” (Bioorg Med Chem, 2019)
The source made the active and inactive calls. The rule behind the calls is not given here.

Assays:
[1] = Permeability of compound at 25 ug/ml at pH 7.4 incubated for 18 hrs by PAMPA-BBB assay
[2] = target: Acetylcholinesterase (Homo sapiens, UniProt P22303); assay: Inhibition of human erythrocyte AChE using acetylthiocholine iodide as substrate preincubated for 10 mins followed by substrate addition and measured for 6 mins by Ellman's method
[3] = target: Cholinesterase (Homo sapiens, UniProt P06276); assay: Inhibition of human plasma BChE using butyrylthiocholine iodide as substrate preincubated for 10 mins followed by substrate addition and measured at 6 mins by Ellman's method
[4] = Octanol/water partition co-efficient, log P of compound at pH 7.4 by shake-flask method; type: physicochemical
[5] = tested on: Mus musculus; assay: Reversal of scopolamine-induced amnesic effect in albino mouse assessed as increase in transfer latency time of acquisition trial at 5 mg/kg, po administered once daily for 7 days followed by scopolamine challenge and subsequent training session for 5 mins by passive avoidance test; type: functional, organism-based
[6] = tested on: Mus musculus; assay: Cognitive enhancing effect in albino mouse assessed as reversal of scopolamine-induced reduction in spontaneous alteration score at 5 mg/kg, po administered once daily for 7 days followed by scopolamine challenge for 5 mins prior to test and measured on day 7 by Y-maze test; type: functional, organism-based
[7] = tested on: Mus musculus; assay: Reversal of scopolamine-induced amnesic effect in albino mouse assessed as increase in transfer latency time of retention trial at 5 mg/kg, po administered once daily for 7 days followed by scopolamine challenge and subsequent training session for 5 mins by passive avoidance test; type: functional, organism-based

Acetylcholinesterase, sequence (P22303 whole entry): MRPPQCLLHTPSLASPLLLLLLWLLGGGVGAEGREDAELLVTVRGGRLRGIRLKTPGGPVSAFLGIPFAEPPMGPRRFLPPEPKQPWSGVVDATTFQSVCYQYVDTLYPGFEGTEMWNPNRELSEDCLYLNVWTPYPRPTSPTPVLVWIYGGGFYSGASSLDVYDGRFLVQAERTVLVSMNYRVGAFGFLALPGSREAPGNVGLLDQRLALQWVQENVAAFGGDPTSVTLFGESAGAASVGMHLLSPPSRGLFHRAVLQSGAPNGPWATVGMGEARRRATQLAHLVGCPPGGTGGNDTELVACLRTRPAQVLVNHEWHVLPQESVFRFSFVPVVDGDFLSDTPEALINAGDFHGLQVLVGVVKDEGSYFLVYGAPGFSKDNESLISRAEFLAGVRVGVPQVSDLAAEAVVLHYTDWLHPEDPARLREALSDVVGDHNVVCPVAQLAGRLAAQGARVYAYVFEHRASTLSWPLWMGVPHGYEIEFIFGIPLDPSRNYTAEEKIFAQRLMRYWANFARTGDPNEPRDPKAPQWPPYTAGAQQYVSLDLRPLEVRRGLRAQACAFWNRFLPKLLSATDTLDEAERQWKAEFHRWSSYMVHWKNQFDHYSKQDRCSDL
Cholinesterase, sequence (P06276 whole entry): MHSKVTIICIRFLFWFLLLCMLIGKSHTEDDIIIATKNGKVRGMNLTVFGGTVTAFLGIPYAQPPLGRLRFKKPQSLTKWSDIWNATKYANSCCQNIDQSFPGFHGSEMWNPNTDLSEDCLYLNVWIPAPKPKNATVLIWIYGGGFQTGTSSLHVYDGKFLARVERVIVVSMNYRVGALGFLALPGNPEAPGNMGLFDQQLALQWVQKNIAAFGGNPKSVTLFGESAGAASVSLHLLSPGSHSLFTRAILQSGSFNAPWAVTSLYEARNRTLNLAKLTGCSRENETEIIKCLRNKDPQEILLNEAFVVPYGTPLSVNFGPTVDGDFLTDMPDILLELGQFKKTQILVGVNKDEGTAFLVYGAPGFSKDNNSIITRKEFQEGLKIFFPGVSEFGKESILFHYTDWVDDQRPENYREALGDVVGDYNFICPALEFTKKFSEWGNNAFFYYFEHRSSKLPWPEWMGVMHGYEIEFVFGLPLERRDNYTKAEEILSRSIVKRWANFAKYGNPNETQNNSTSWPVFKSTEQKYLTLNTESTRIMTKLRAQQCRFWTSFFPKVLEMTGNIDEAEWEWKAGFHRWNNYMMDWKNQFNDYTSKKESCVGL

SMILES | Papp at 18 h, 25 ug/ml [1] [×10⁻⁶ cm/s] | IC50 [2] [µM] | IC50 [3] [µM] | logD [4] | Activity [5] | Activity [6] | Activity [7]
CN(C)CCCN1c2ccccc2Sc2ccc(Cl)cc21 [CHLORPROMAZINE] | 5.8 to 6.5 | – | – | – | – | – | –
Nc1cccc(Cl)c1Oc1ccc(CNc2cc(Cl)cc(Cl)c2)cc1 | 1.56 | > 10 | > 10 | 4.39 | – | – | –
Nc1cccc(Cl)c1Oc1ccc(CNc2ccc(Cl)cc2)cc1 | 3.42 | > 10 | > 10 | 4.65 | – | – | –
Nc1cccc(Cl)c1Oc1ccc(CNc2ccc(O)cc2)cc1 | 6.87 | 8.81 | 9.36 | 3.15 | – | – | –
CCn1cc(C(=O)O)c(=O)c2cc(F)c(N3CCNC(C)C3)c(F)c21 (centres undefined) [LOMEFLOXACIN] | 0.31 to 1.1 | – | – | – | – | – | –
COc1cc2c(cc1OC)C(=O)C(CC1CCN(Cc3ccccc3)CC1)C2 (centres undefined) | – | – | – | – | Active | Active | Active
COc1ccc(NCc2ccc(Oc3c(N)cccc3Cl)cc2)cc1 | 5.68 | 5.24 | 9.97 | 3.33 | – | – | –
COc1cc(NCc2ccc(Oc3c(N)cccc3Cl)cc2)cc(OC)c1 | 4.54 | 2.88 | 6.42 | 3.56 | – | – | –
Nc1cccc(Cl)c1Oc1ccc(CNc2ccccc2)cc1 | 6.26 | > 10 | > 10 | 3.54 | – | – | –
